In US10086039B2, “Lamin A, an activator of longevity/anti-aging SIRT1 protein” (THE UNIVERSITY OF HONG KONG, priority 2012, dated 2018):

Legend:
Zmpste24−/− MEFs = experiment: SA-β-galactosidase senescence assay in MEFs; type: cell-based, mouse; conditions: resveratrol-treated vs saline-treated
Procedure: SA-β-galactosidase assay was performed using a Cellular Senescence Assay Kit (Chemicon International, CA, USA), following the manufacturer's instructions. For MEFs, resveratrol was supplemented in the complete medium at passage 4 and SA-β-galactosidase assay was performed at passage 6. To quantify SA-β-galactosidase staining, the blue-dyed precipitate was extracted with 100 μl DMSO and the absorbance at 415 nm was recorded.

[1] = target: T1, SIRT1 binding to prelamin A (Mus musculus, UniProt Q923E4); experiment: Prelamin A pull-down by anti-SIRT1 immunoprecipitates in BMSCs; type: cell-based; conditions: resveratrol 2 μM
T1 construct: endogenous in cells; host or cells: mouse bone marrow stromal cells (Zmpste24-/-)
T1 sequence (Q923E4 2-737 limits assumed): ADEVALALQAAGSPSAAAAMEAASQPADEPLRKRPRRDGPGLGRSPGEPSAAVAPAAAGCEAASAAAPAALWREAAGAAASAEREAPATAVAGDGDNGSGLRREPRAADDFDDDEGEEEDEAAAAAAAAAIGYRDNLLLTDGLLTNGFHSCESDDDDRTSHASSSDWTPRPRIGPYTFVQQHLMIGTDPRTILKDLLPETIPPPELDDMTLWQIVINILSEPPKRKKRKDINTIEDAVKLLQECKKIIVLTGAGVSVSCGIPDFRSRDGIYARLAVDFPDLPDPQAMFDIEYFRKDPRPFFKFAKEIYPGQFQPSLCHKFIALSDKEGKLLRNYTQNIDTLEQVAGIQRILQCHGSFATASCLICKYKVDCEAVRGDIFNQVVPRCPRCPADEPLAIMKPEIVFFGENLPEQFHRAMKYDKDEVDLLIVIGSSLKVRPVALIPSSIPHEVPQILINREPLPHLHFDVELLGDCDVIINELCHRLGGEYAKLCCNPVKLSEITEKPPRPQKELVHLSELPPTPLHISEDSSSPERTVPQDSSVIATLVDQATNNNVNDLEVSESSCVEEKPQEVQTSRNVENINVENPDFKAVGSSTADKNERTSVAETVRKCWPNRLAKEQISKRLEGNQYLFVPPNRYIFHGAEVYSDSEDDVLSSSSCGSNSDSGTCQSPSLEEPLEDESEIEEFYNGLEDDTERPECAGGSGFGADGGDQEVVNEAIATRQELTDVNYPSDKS
T1 sequence (P48678 1-662 partner limits assumed): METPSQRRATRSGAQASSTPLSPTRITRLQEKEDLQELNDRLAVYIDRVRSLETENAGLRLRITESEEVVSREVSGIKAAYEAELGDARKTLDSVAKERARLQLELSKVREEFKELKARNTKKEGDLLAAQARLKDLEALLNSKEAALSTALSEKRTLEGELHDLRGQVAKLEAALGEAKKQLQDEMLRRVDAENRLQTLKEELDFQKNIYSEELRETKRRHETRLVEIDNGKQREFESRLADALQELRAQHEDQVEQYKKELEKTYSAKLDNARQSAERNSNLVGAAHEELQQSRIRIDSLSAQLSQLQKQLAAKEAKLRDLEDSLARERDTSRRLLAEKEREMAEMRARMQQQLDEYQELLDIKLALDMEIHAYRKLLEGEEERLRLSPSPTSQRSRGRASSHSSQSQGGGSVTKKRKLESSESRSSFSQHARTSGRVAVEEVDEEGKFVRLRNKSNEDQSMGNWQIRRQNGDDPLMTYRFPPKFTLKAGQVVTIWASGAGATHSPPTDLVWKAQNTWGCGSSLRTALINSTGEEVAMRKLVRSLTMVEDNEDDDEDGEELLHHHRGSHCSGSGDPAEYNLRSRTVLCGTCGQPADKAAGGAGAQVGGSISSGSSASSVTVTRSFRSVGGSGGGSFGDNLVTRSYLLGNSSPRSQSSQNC
Procedure: (FIG. 4A) Resveratrol (10 μM) increased colony-forming capacity of Zmpste24^−/− BMSCs. Colony-forming assay was performed on freshly isolated bone marrow cells in 10 cm dishes in the presence and absence of resveratrol. (FIG. 4B) Colony number counting. […] Data represent mean±SEM, n=4. *P<0.05, RSV Vs Vehicle. (FIG. 4C) Left, level of prelamin A pull down by anti SIRT1 immunoprecipitates in BMSCs treated or untreated with resveratrol (2 μM) was determined by Immunoblotting; right, level of acetylated Foxo3a in resveratrol was assessed by Immunoblotting. (FIG. 4D) Levels of catalase and Gadd45α in SIRT1 or scramble siRNA treated Zmpste24^−/− BMSCs in the presence or absence of resveratrol (10 μM) determined by Western blotting. (FIG. 4E) Colony-forming capacity of Zmpste24^−/− BMSCs by SIRT1 or scramble knocking down in the presence or absence of resveratrol. […] Colony forming assay was done on freshly isolated cells in 6-well plates. (FIG. 4F) Quantification of (FIG. 4E). […] (FIG. 4gG Levels of H3K9ac and IR-induced-H2AX with or without ectopic SIRT1 in wild-type and Zmpste24 null BMSCs were assessed by Western blotting. (FIG. 4H) Ectopic SIRT1 increased the colony-forming capacity of Zmpste24^−/− and wild-type BMSCs. Colony-forming assay was performed on freshly isolated cells in 6 cm dishes. (FIG. 4I) Quantification of (FIG. 4H). Data represent mean±SEM, n=5. *P<0.05, SIRT1 Vs Mock. […]

Zmpste24−/− BMSCs = experiment: BMSC colony-forming assay in vitro; type: cell-based, mouse
From the text: Bone marrow stromal cells were isolated and cultured according to modified protocol (Enumeration and Expansion of Mouse Mesenchymal Progenitor Cells Using MESENCUILT®, Stemcell Technologies, Canada). Briefly, bone marrow cells were flushed out from femurs and tibias with α-MEM (Invitrogen, Carlsbad, Calif., USA) supplemented with 20% FBS, and plated in petri dishes. Non-adherent cells were removed on day 3 and medium was replaced every 3 days. BMSC colonies were fixed with methanol and stained with crystal violet solution on the indicated day. For magnetic enrichment, CD11b-positive population was removed using a MIDIMACS™ magnetic cell sorting kit (Miltenyi Biotec, Bergisch Gladbach, Germany), following the manufacturer's instructions. Colonies containing more than 50 cells were counted. BMSC colony forming efficiency was calculated as number of colonies formed by […] bone marrow nucleated cells.

## Oc1ccc(C=Cc2cc(O)cc(O)c2)cc1 [resveratrol]
Zmpste24−/− MEFs
  β-galactosidase activity (senescence): no obvious difference
[1]
  binding of SIRT1 to prelamin A: increased the binding of SIRT1 to prelamin A
Zmpste24−/− BMSCs; Zmpste24−/− BMSCs with SIRT1 knocked down
  rescue effect on colony-forming capacity: attenuated
Zmpste24−/− BMSCs; Zmpste24−/− BMSCs, 2 μM and 10 μM, dose-dependent
  colony-forming capacity: enhanced the colony-forming capacity
